Data reported in article PMC11586995, “Screening and Characterization of Sialic Acid-Binding Variable Lymphocyte Receptors from Hagfish” (BioTech, 2024).
“Also recorded” adds a separate entry of the source.

Test system: ccombodies 2D8, 5G11, 6D2, and 4A1
Test: Competitive ELISA of monosaccharide haptens against ccombody binding to BSA-CC-Neu5Ac
Parameters: species or system Eptatretus burgeri
Conditions: hapten 50 to 0.39 mM, all four candidates
Experimental: ELISA was carried out according to the method of Lazarte et al., with some modifications. Screening for sialic acid-binding ccombodies was carried out by coating 100 μL of a 300 ng/well BSA-CC-Neu5Ac glycoconjugate onto high-binding 96-well ELISA plates (Corning, Glendale, AZ, USA), along with BSA only (without CC) as a negative control. Plates were left standing overnight at 4 °C, after which they were washed three times with 1X TBST (10 mM Tris-HCl, 150 mM NaCl, and 0.5% Tween) to remove unbound antigen. Plates were blocked for 30 min with blocking buffer comprising 5% skimmed milk in 1× TBST at room temperature, then washed once with 1X TBST. Ccombody supernatants from HEK293F cells were then added onto the plates, incubated for 1 h 30 min, followed by washing three times with 1X TBST. Antigen bound ccombodies were detected with mouse anti-VLRB antibody (11G5) in blocking buffer by incubation for 1 h, followed by washing three times to remove unbound 11G5. Finally, bound 11G5 antibodies were detected by incubating for 1 h with HRP-conjugated goat anti-mouse IgG (1:5000 v/v in blocking buffer), then washed four times. Binding was quantified by the addition of 100 μL developing buffer composed of 42 mM 3,3′,5,5′-tetramethylbenzidine and 1% H2O2, then color development for 30 min at room temperature. The reaction was stopped by adding 50 μL of 2 M H2SO4. The absorbance was then read at 450 nm using an xMark (BIO-RAD, Hercules, CA USA) microplate reader. Competitive inhibition was determined through ELISA as presented earlier, with some modifications. Optimal subsaturating dilutions of ccombody-culture supernatants were used based on the preliminary antibody titration data. Competitive inhibitors, two-fold serially diluted (50 to 0.39 mM), were mixed with a constant amount of ccombody supernatant diluted in 5% skimmed milk in 1X TBST, then incubated for 1 h at room temperature. Next, 100 μL of the mixture was subsequently transferred into another 96-well ELISA plate containing a constant amount of antigen (500 ng/well) which was pre-blocked with 5% skimmed milk in 1X TBST. Antigen-bound ccombodies were detected by 11G5 and HRP-conjugated goat anti-mouse IgG. The normalized and background-corrected OD450 values were plotted against the ligand concentration, and the half-maximal inhibitory concentration (IC50) was computed by curve fitting using the Four Parameter Logistic (4PL) Curve Calculator [27]. Values are expressed as the mean of three determinations.

Row | Structure (SMILES) | Inhibition of ccombody binding by free hapten
1 | CC(=O)N[C@H]1[C@H]([C@H](O)[C@H](O)CO)OC(O)(C(=O)O)C[C@@H]1O (stereo partly drawn) [Neu5Ac, N-acetylneuraminic acid] | strong inhibition; also recorded: strong inhibitory effects
2 | O=C[C@H](O)[C@@H](O)[C@@H](O)[C@H](O)CO [galactose] | No significant inhibition
3 | OC[C@H]1OC(O)[C@H](O)[C@@H](O)[C@@H]1O (stereo partly drawn) [glucose] | No significant inhibition
4 | OC[C@H]1OC(O)[C@@H](O)[C@@H](O)[C@@H]1O (stereo partly drawn) [mannose] | No significant inhibition

Further lines, results first:

Row | Inhibition of ccombody binding by free hapten | Structure (SMILES)
5 | No significant inhibition | CC(=O)N[C@@H]1[C@@H](O)[C@@H](O)[C@@H](CO)O[C@@H]1O [N-acetylgalactosamine]
6 | No significant inhibition | CC(=O)N[C@@H]1[C@@H](O)[C@H](O)[C@@H](CO)O[C@H]1O [N-acetylglucosamine]
